# Laboratory results taken from patent US20030186967A1, “Acylresorcinol derivatives are selective vitronectin receptor inhibitors” (American Home Products Corporation, priority 1998, published 2003).
# Structures can show the parent of a compound that is named as a salt.
# Key:
# osteoclasts = assay: Osteoclast Pitting Assay; type: cell-based, rat; conditions: Osteoclast Pitting Assay, neonatal rat osteoclasts on bovine cortical bone slices; for IC50: read-out: IC50 (μM) Bone Pitting
# Protocol: The assay is conducted as described in Murrills and Dempster (1990). Briefly, 4×4×0.2 mm slices of devitalized bovine cortical bone are numbered, placed in the wells of 96-well culture plates and wetted with 100 ul of Medium 199 containing Hanks salts, 10 mM HEPES, pH 7.0 (Medium 199/Hanks). Bone cell suspensions containing osteoclasts are prepared by mincing the long bones of neonatal rats (Sprague-Dawley, 4-6 days old) in Medium 199/Hanks. 100 uL of the suspension is then plated onto each slice and incubated 30 minutes to allow osteoclasts to adhere. The slices are rinsed to remove non-adherent cells and incubated 24 h in Medium 199 containing Earle's salts, 10 mM HEPES and 0.7 g/L NaHCO3, which equilibrates at pH 6.9 in a 5% CO2 atmosphere. At this pH the adherent osteoclasts excavate an adequate number of resorption pits for assay purposes. Slices are fixed in 2.5% glutaraldehyde and osteoclasts counted following tartrate-resistant acid phosphatase staining. […] All cells are stripped from the slice by sonication on 0.25M NH4OH and the resorption pits formed by the osteoclasts during the experiment stained with toluidine blue. Resorption pits are quantified by manually counting.
# The experiments are conducted according to a block design with osteoclasts from each animal exposed to each treatment. Three replicate slices are used per treatment per animal, such that a total of 96 slices are examined for an experiment involving four animals and eight treatments (including control). Several parameters are recorded on a “per slice” basis: number of pits, number of osteoclasts, number of pits per osteoclast, number of fibroblast-like bone cells. SAS or JMP statistical software is used for statistical analysis. […] IC50s are calculated for active compounds using dose-response curves.
# Reference Compound: Rat calcitonin.
# Osteoclasts are responsible for the bone loss that occurs in the onset of osteoporosis and anti-resorptive drugs directed against the osteoclast are a requirement for patients losing bone.
# αVβ3 integrin = target: T1, αVβ3 integrin (Homo sapiens, UniProt P05106+P06756); assay: Osteopontin-αVβ3 Cell Attachment Assay; type: cell-based
# T1 construct: αVβ3-expressing cell lines are maintained by standard tissue culture techniques; endogenous in cells; host or cells: αVβ3-expressing cell lines
# T1 sequence (P06756 31-889 limits assumed): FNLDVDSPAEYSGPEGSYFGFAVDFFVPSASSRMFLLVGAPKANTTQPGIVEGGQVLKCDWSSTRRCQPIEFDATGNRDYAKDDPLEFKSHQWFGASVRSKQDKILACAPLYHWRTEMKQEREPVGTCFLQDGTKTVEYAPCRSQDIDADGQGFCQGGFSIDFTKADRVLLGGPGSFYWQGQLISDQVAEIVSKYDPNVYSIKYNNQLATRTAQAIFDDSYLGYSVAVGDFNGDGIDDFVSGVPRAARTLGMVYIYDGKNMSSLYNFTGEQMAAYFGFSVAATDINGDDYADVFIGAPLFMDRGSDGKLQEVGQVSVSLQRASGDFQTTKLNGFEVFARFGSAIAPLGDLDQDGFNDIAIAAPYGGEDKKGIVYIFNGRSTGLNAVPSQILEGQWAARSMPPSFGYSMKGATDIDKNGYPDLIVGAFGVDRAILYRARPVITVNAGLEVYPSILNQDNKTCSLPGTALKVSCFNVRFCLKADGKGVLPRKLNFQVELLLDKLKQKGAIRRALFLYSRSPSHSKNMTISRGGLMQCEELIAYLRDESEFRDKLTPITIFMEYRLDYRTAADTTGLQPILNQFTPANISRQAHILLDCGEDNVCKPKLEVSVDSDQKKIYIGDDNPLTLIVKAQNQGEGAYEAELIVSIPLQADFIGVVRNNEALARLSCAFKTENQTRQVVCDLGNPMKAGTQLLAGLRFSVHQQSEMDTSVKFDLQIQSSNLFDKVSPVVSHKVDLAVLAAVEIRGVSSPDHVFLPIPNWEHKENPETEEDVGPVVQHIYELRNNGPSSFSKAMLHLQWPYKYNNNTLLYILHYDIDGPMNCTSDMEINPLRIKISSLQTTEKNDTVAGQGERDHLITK
# T1 sequence (P06756 891-1048 partner limits assumed): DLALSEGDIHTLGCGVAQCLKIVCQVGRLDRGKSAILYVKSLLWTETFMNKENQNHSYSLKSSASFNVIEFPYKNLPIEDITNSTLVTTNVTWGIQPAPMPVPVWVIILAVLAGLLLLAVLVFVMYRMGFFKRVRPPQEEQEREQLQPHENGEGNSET
# T1 sequence (P05106 27-788): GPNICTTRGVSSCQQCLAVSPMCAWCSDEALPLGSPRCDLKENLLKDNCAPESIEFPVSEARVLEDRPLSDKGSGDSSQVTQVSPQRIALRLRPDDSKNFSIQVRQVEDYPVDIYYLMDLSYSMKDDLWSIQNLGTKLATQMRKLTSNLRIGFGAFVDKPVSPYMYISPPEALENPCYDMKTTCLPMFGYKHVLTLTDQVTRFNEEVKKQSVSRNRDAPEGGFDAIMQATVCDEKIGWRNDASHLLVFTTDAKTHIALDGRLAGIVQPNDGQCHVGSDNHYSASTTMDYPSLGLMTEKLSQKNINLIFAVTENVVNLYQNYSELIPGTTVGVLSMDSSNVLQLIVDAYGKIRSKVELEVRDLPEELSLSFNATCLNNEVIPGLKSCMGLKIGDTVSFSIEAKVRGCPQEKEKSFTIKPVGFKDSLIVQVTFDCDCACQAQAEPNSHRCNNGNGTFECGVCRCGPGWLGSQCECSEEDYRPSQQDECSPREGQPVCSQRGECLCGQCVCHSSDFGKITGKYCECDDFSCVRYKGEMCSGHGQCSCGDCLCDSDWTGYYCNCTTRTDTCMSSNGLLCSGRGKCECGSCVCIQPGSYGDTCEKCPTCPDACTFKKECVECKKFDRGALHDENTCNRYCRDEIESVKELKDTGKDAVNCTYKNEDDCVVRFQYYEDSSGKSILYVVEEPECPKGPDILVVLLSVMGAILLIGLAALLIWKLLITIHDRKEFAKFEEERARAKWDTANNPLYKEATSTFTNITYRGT
# Protocol: Osteopontin-αVβ3 Cell Attachment Assay The purpose of this assay is to measure the effect of various compounds on the RGD-dependent attachment of cells to osteopontin mediated by the αVβ3 integrin. […] Following the blocking period, wells are aspirated and washed once with D-PBS. Cell Suspension αVβ3-expressing cell lines are maintained by standard tissue culture techniques. […] The cells are pelleted by low-speed centrifugation and washed three times with 0.5 mg/mL trypsin inhibitor in D-PBS (Sigma). The final cell pellet is resuspended in cell suspension media at a concentration of 10^6 cells/mL. Attachment Assay Incubation: […] of diluted test compound is added to osteopontin-coated wells (in triplicate) followed by […] of cell suspension; background cell attachment is determined in uncoated wells. The plate is incubated at 25° C. in a humidified air atmosphere for 1.5 hours. Following the incubation period, the wells are gently aspirated and washed once with D-PBS. Cell Number Detection: The number of cells attached is determined by an MTT dye conversion assay (Promega) according to the manufacturer's instructions. Briefly, MTT dye is diluted in cell suspension media (15:85) and […] is added to each well. […] The assay plates are covered and incubated at 37° C. in a humidified air atmosphere overnight. […] Reference Compounds Various […]
# [1] = system: thyro-parathyroidectomized (TPTX) rats; assay: PTH-induced hypercalcemia of thyroparathyroidectomized male rats; type: in vivo, rat; conditions: Rattus norvegicus
# Protocol: Effects of test compounds on PTH-induced hypercalcemia of thyroparathyroidectomized male rats
# Male thyro-parathyroidectomized (TPTX) rats (Charles River) were randomly assigned to groups of 7 rats/group. Following a baseline serum calcium determination an Alzet 1003D minipump (Alza Corporation, Palo Alto, Calif.) loaded with 0.3 mg/ml PTH (Bachem, Philadelphia, Pa.) was implanted subcutaneously in each rat. For evaluation of prophylactic effects of a test drug, another minipump with appropriate concentration of the test drug solution was implanted subcutaneously at a site away from PTH minipump. Alternatively, test drugs were administered by oral gavage as a solution or uniform suspension in an appropriate medium depending on the physical properties of the test compound. A group of 7 unimplanted TPTX rats was set aside as a normal control group. Twenty hours after minipump implantation blood was collected from each rat to confirm the presence of hypercalcemia (judged by elevation of serum calcium levels, 2 SD>normal non-implanted level). At various intervals between 0.5 and 24 hours after dosing (usually one to three time points), blood was collected from each rat and the serum evaluated for total calcium. Serum calcium levels were measured using the Nova 7+7 calcium auto analyzer spectrophotometrically using the Sigma test kit (#587A). Test results were determined by the difference in serum calcium between vehicle and treatment group following PTH administration, using a one-way analysis of variance with Dunnett's test or other multiple comparison methods.
# [2] = target: T2, Vitronectin receptor αVβ3 (Homo sapiens, UniProt P05106+P06756); assay: Vitronectin Receptor αVβ3 Binding Assay; conditions: read-out: VnR (IC50μM)
# T2 construct: expressed in transfected cells; host or cells: 512P5 cells (plasma membrane preparation)
# T2 sequence (P06756 31-889 limits assumed): as the sequence (P06756 31-889 limits assumed) above
# T2 sequence (P06756 891-1048 partner limits assumed): as the sequence (P06756 891-1048 partner limits assumed) above
# T2 sequence (P05106 27-788): as the sequence (P05106 27-788) above
Structure (SMILES),IC50 (osteoclasts) [µM],IC50 (αVβ3 integrin) [µM],IC50 (μM) Bone Pitting (osteoclasts),IC50 [2] [µM],melting point [°C],IC50 (μM) Cell (αVβ3 integrin),inhibition in vivo at 100 mg/kg ([1]; sc) [%],inhibition in vivo at 100 mg/kg ([1]; po) [%],"inhibition in vivo at 30 mg/kg ([1]; sc, 30 mg/kg) [%]","inhibition in vivo at 75 mg/kg ([1]; sc, 75 mg/kg) [%]"
"O=C(NC[C@H](NS(=O)(=O)c1ccccc1)C(=O)O)c1ccc(OCCNC2=NCCCN2)cc1O [Example 275, 2(S)-Benzenesulfonylamino-3-[2-hydroxy-4-[2-(3,4,5,6-tetrahydro-pyrimidin-2-ylamino)ethoxy]benzoylamino]propionic acid hydrochloride]",0.43,0.002,–,–,–,–,112,39,64,105
"CCOC(=O)[C@H](CNC(=O)c1ccc(OCCNC2=NCCCN2)cc1O)NC(=O)OCc1ccccc1 [Example 277, 2(S)-Benzyloxycarbonylamino-3-[2-hydroxy-4-[2-(3,4,5,6-tetra-hydropyrimidin-2-ylamino)ethoxy]benzoylamino]propionic acid ethyl ester hydrochloride]",0.4,0.05,–,–,–,–,86,79,–,–
"N=C(N)NCCOc1ccc(C(=O)NC(CC(=O)O)c2ccccc2)c(O)c1 (stereo not shown) [Example 280, 3-[4-Guanidinoethoxy)-2-hydroxy-benzoylamino]-3-phenylpropanoic acid, hydrochloride]",–,78,inactive @ 200,12.3,–,–,–,–,–,–
"CCOC(=O)[C@H](CNC(=O)c1ccc(OCCNc2ncccn2)cc1O)NC(=O)OCc1ccccc1 [Example 299, 2(S)-Benzyloxycarbonylamino-3-[2-hydroxy-4-[2-(pyrimidin-2-ylamino)ethoxy]-benzoylamino]propionic acid ethyl ester hydro-chloride]",1.9,–,–,–,124 to 125,inactive @ 100,–,102,–,–

# Continued, in another order:
IC50 (osteoclasts) [µM],IC50 (αVβ3 integrin) [µM],IC50 (μM) Bone Pitting (osteoclasts),IC50 [2] [µM],melting point [°C],IC50 (μM) Cell (αVβ3 integrin),Structure (SMILES),inhibition in vivo at 100 mg/kg ([1]; sc) [%],inhibition in vivo at 100 mg/kg ([1]; po) [%],"inhibition in vivo at 30 mg/kg ([1]; sc, 30 mg/kg) [%]","inhibition in vivo at 75 mg/kg ([1]; sc, 75 mg/kg) [%]"
0.9,18,–,–,–,–,O=C(NC[C@H](NS(=O)(=O)c1ccccc1)C(=O)O)c1ccc(OCCNc2ncccn2)cc1O [Example 274],54,–,–,–
0.15,0.12,–,–,–,–,"CCOC(=O)[C@H](CNC(=O)c1ccc(OCCNC2=NCCCN2)cc1O)NS(=O)(=O)c1ccccc1 [Example 276, hydrochloride]",170,–,–,–
25,50,–,–,–,–,"O=C(N[C@@H](CNC(=O)c1ccc(OCCNc2ncccn2)cc1O)C(=O)O)OCc1ccccc1 [Example 297, 2(S)-Benzyloxycarbonylamino-3-[2-hydroxy-4-[2-(pyrimidin-2-ylamino)ethoxy]-benzoylamino]propionic acid]",–,–,–,–
